According to article PMC5441580, “GPR40 partial agonist MK-2305 lower fasting glucose in the Goto Kakizaki rat via suppression of endogenous glucose production” (PLoS ONE, 2017):
pEC50: −log10 of the molar value. Values joined by “and” are separate entries in the source; they are usually repeats but may differ in a detail not shown here. Equal entries are not always repeated.

Experiments:
[1] = protein binding assay in mouse plasma; format: in vitro ADME; conditions: read-out: free fraction
[2] = tested on: GPR40 receptor; conditions: cited from earlier work
[3] = tested on: GK rats; test: 13C-labeled OGTT, 13C metabolites in liver and skeletal muscle; format: in vivo, rat; conditions: for 13C Labeled Metabolite, Ala C3 / 13C Labeled Metabolite, G6P C1 / 13C Labeled Metabolite, Glyc C1 / 13C Labeled Metabolite, Lac C3: [1-13C] glucose, acute treatment, individual animals
Protocol: GK rat OGTT procedures were followed as above. Animals were treated PO at 5 ml/kg with MK-2305 at 10 mg/kg or vehicle at time = -60 min. At time = 0, animals were challenged PO at 10 ml/kg dose volume with [1-^13C] glucose prepared in distilled water at 1 g/kg (Sigma-Aldrich). Blood glucose was measured pre-treatment and at t = 0, 20, 40, 60, 120 minutes post challenge. Following the blood glucose measurement at time = 120 min, animals were anesthetized with Isoflurane (Isothesia, Henry Schein, Dublin, OH) and samples of liver and skeletal muscle were collected. Tissue samples were processed using a methanol/water based extraction procedure as follows. Frozen tissue was weighed and added to tubes containing 80% methanol at a ratio of 100 mg tissue per mL 80% methanol. The samples were homogenized at 4°C using a Polytron homogenizer equipped with a 12 mm stainless steel head. Samples were then centrifuged at 25,000 rcf for 10 min at 4°C, the supernatant collected, and the pellet extracted again using an equivalent volume of 80% methanol. The supernatants from both extractions were pooled and the methanol evaporated under nitrogen. The samples were then reconstituted in 180 μl 0.1M sodium phosphate in D2O (pH 7.4) for NMR analysis. ^13C NMR of tissue extracts was performed on a 600 MHz Bruker NMR spectrometer (David H. Murdock Research Institute) using the following parameters: 45° pulse, D1 = 0.2 sec, NS = 3200 averages, ^1H broadband decoupling (WALTZ-16), acquisition time ~45 min. […] These NMR signals were integrated and converted to absolute units (μmoles) using ^13C NMR spectra from standard solutions of each metabolite of known concentration acquired under identical conditions. Glycogen is a primary site of glucose disposal in both liver and muscle, however glycogen was not preserved in our tissue extraction protocol. To quantify tissue ^13C-glycogen, a separate piece of tissue from each sample was analyzed. Briefly, tissue samples were saponified in hot KOH, and this was followed by glycogen precipitation with NaSO4 and ethanol, and then degradation with amyloglucosidase. The resulting glycogen-derived glucose solution was analyzed for total glucose using a glucose oxidase / horseradish peroxidase assay kit and fluorescence-based product detection according to the manufacturers’ instructions (BioVision Glycogen Assay Kit, Milpitas, CA).

[4] = biological target: T1, human GPR41 (FFAR3) (Homo sapiens, UniProt O14843); test: cAMP (LANCE) functional assay, CHO cells expressing human GPR41; format: cell-based
T1 construct: expressed in transfected cells
T1 sequence (O14843 1-346): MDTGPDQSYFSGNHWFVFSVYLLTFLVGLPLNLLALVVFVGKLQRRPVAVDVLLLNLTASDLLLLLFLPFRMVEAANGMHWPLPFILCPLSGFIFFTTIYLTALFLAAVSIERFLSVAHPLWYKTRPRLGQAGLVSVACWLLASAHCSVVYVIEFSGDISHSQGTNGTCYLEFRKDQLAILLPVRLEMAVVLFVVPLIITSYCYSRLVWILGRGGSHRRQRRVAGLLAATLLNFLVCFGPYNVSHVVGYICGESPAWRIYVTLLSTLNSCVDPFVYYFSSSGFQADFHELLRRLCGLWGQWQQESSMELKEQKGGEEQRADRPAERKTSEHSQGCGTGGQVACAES
Protocol: CHO cells stably expressing human GPR41 or human GPR43 were harvested with non-enzymatic cell dissociation buffer and re-suspended in LANCE stimulation buffer (prepared as described by PE) at 0.25 million cells per ml (3.3 million cells per ml for GPR43) and 6 μl was then plated into each well of a 384-well Culturplate. Compounds were serially diluted in DMSO and then diluted further into stimulation buffer containing 2 μM forskolin (Sigma) at 2-times final concentration in the assay. 6 μl of the diluted compounds were then added to the assay plate and the plate incubated for 60 mins at room temperature. After the incubation, 12 μl of detection reagent (prepared as described by PE) was added to each well and the plates incubated one additional hour at room temperature. After the final incubation, the plates were read in a Perkin Elmer Envision reader with a method designed for Time-resolved fluorescence (TRF) assays (340 nm excitation, dual emission 615 and 655 nm). For each assay, a cAMP standard curve plate was also included. All fluorescent readings (using the 655/615 nm ratio) were converted to cAMP concentration using the cAMP standard curve and the percent activity at each concentration of test compound was determined using 0% activation (basal activity) determined in those wells containing DMSO alone, while 100% activity was determined in wells containing a concentration of agonist know to maximally activate the receptor.

[5] = tested on: pancreatic islets of Langerhans from wild-type mice; test: glucose stimulated insulin secretion (GSIS), isolated wild-type islets; format: cell-based, mouse; conditions: WT islets; for secreted insulin per islet: 10 uM compound, 60 min, individual wells
Protocol: Pancreatic islets of Langerhans were isolated from wild-type and GPR40−/− mice (littermates) by collagenase digestion and discontinuous Ficoll gradient separation. […] Insulin secretion was determined by a 1 hr static incubation in Krebs-Ringer bicarbonate (KRB) buffer in a 96-well format as previously described. Briefly, islets were first preincubated in KRB medium with 2 mmol/l glucose for 30 min and were then transferred to a 96-well plate (three islets/well) and incubated with 200 μl of the KRB medium with 2 or 15 mmol/l glucose in the presence or absence of testing compounds for 60 min. The buffer was removed from the wells at the end of the incubation and assayed for insulin levels using the Ultrasensitive Rat Insulin ELISA kit (ALPCO, Salem, NH). All insulin secretion data were normalized by total islet numbers (ex: three islets/well), so the unit is secreted insulin (ng/ml) per islet.

[6] = 10 mg/kg PO, [1-13C] glucose OGTT, GK rats

fraction unbound [1]: 0.026
% Activation ([4]; @ 25 μM): 85 @ 25 μM % and 85%
% Effect ([4]; Dose 1.267 nM): -32%
% Effect ([4]; Dose 3.801 nM): 0.634%
% Effect ([4]; Dose 34.208 nM): -2.75%
% Effect ([4]; Dose 102.624 nM): -4.7%
% Effect ([4]; Dose 307.872 nM): -36%
% Effect ([4]; Dose 923.617 nM): -18%
% Effect ([4]; Dose 2770.85 nM): -0.143%
% Effect ([4]; Dose 8312.55 nM): 50%
% Effect ([4]; Dose 24938 nM): 85%
pEC50 ([4]; cAMP, CHO cells expressing human GPR41): 4.90
SMILES: O=C1NC(=O)C(C2CCOc3cc(Oc4ccc(C(F)(F)F)cc4Cl)ccc32)S1 (stereo not drawn) [MK-2305]
binding site on GPR40 [2]: binds to the same site as other GPR40 partial agonists such as AMG837 and TAK-875
effect on binding of AgoPAM's [2]: augments the binding of AgoPAM’s such as AM1638
effect on disposal of 13C-glucose into 13C-G6P, 13C-glycogen, 13C-lactate and 13C-alanine in liver [3, 6]: significant decreases
effect on disposal of 13C-glucose into metabolites in muscle [3, 6]: no significant effects
13C Labeled Metabolite, Ala C3 [3]: 0.07795 umoles/g liver and 0.1076 umoles/g liver and 0.03915 umoles/g liver and 0.01144 umoles/g liver and 0.01402 umoles/g liver and 0.02433 umoles/g liver and 0.05001 umoles/g liver and 0.007673 umoles/g liver
13C Labeled Metabolite, G6P C1 [3]: 0.02684 umoles/g liver and 0.01164 umoles/g liver and 0.007287 umoles/g liver and 0.01533 umoles/g liver and 0.00988 umoles/g liver and 0.01421 umoles/g liver and 0.01349 umoles/g liver and 0.0107 umoles/g liver
13C Labeled Metabolite, Glyc C1 [3]: 1.292 umoles/g liver and 0.3555 umoles/g liver and 0.1582 umoles/g liver and 0.4672 umoles/g liver and 0.1107 umoles/g liver and 0.1399 umoles/g liver and 0.3766 umoles/g liver and 0.2884 umoles/g liver
13C Labeled Metabolite, Lac C3 [3]: 0.03897 umoles/g liver and 0.06288 umoles/g liver and 0.02257 umoles/g liver and 0.01974 umoles/g liver and 0.01299 umoles/g liver and 0.02143 umoles/g liver and 0.0406 umoles/g liver and 0.007673 umoles/g liver
13C Labeled Metabolite, Ala C3 ([3]; skeletal muscle): 0.1279 umoles/g muscle and 0.07989 umoles/g muscle and 0.1157 umoles/g muscle and 0.07123 umoles/g muscle
13C Labeled Metabolite, G6P C1 ([3]; skeletal muscle): 0.05019 umoles/g muscle and 0.01903 umoles/g muscle and 0.04767 umoles/g muscle and 0.01045 umoles/g muscle and 0.004493 umoles/g muscle and 0.01768 umoles/g muscle and 0.003514 umoles/g muscle
13C Labeled Metabolite, Glyc C1 ([3]; skeletal muscle): 0.2857 umoles/g muscle and 0.133 umoles/g muscle and 1.635 umoles/g muscle and 0.328 umoles/g muscle and 0.06707 umoles/g muscle and 0.1828 umoles/g muscle and 0.4005 umoles/g muscle
13C Labeled Metabolite, Lac C3 ([3]; skeletal muscle): 0.2756 umoles/g muscle and 0.03448 umoles/g muscle and 0.06757 umoles/g muscle and 0.07739 umoles/g muscle and 0.08426 umoles/g muscle
secreted insulin per islet ([5]; 2mM glucose): 0.6472 ng/ml per islet and 0.4249 ng/ml per islet and 0.7026 ng/ml per islet and 0.678 ng/ml per islet and 0.4061 ng/ml per islet and 0.594 ng/ml per islet and 0.652 ng/ml per islet and 0.541 ng/ml per islet
secreted insulin per islet ([5]; 15 mM Glucose): 5.982 ng/ml per islet and 3.69 ng/ml per islet and 4.728 ng/ml per islet and 4.578 ng/ml per islet and 5.448 ng/ml per islet and 3.948 ng/ml per islet and 4.236 ng/ml per islet and 5.162 ng/ml per islet
effect on GSIS ([5]; high (15 mM) but not basal (2 mM) glucose): acutely stimulate GSIS
